Assay results reported in patent US11260116B2, “Vaccine compositions comprising an amphipathic compound, a neoantigen and a hydrophobic carrier, and methods of use thereof” (IMMUNOVACCINE TECHNOLOGIES INC., priority 2016, dated 2022).
Where two headings read alike, the source gives them in different places.

Experiments:
[1] = cited from earlier work
Mut30 neoantigen = experiment: IFN-gamma ELISPOT of splenocytes from vaccinated mice; assay type: in vivo; conditions: Example 3, FIG. 2; C57BL/6 VAF/Elite Crl mice; DNA- or RNA-based poly I:C; single immunization; eight days after vaccination
Experimental: Pathogen free, C57BL/6 VAF/Elite® Crl mice, 6-8 weeks of age, were purchased from Charles River Laboratories (St. Constant, PQ) and housed according to institutional guidelines with water and food ad libitum under filter controlled air circulation.
Eight days after vaccination, mice were terminated and spleens collected. […] After 18 hours of culture, plates were developed and the number of spot forming units (SFU) counted using Immunospot Reader (C.T.L.). […] Statistical analysis was performed by 2-way ANOVA with Bonferroni post test comparing group responses to Mut30 peptide: *p<0.05, ***p<0.001.
Oil-based depot vaccine formulations were prepared with Mut30 antigen at a higher (100 micrograms) and lower (50 micrograms) dose.
To prepare the oil-based formulations, the Mut30 peptide (low or high dose amount), polyI:C adjuvant (DNA or RNA) and T-helper epitope (A16L peptide) were first reconstituted in an acetate buffer (0.1M, pH 9.5) with DOPC and cholesterol (Lipoid, Germany). The vaccine components were then lyophilized to form a dry cake. Just prior to injection, the dry cake was reconstituted in ISA51 VG oil (SEPPIC, France).
Mice in group 1 (n=6) were vaccinated with 100 microliters of an oil-based depot vaccine containing 100 micrograms of Mut30 neoantigen, 50 micrograms of A16L peptide, 40 micrograms of DNA-based poly I:C, 12 milligrams of DOPC and 1.2 milligrams of cholesterol. […]

mutated peptide = conditions: aqueous formulation, mice, cited from earlier work

| Molecule | bioavailability by route of administration ([1]; intravenous infusion vs parenteral and oral) | Total systemic clearance of CPA and its metabolites ([1]; patients) | elimination half-life on repeated administration ([1]; repeated administration) | peak plasma levels of the parent ([1]; vary between patients) | IFN-gamma ELISPOT immune response to Mut30, high (100 micrograms) vs low (50 micrograms) dose (Mut30 neoantigen) | immune reaction to Mut30 reported by Castle 2012 (mutated peptide) | immune reaction to Mut30 reported by Castle 2012 (mutated peptide; listed as Mut30 neoantigen) |
| --- | --- | --- | --- | --- | --- | --- | --- |
| O=P1(N(CCCl)CCCl)NCCCO1 (stereo not shown) [Cyclophosphamide, N,N-bis(2-chloroethyl)-1,3,2-oxazaphosphinan-2-amine 2-oxide] | little difference in bioavailability | 5 to 9 h | shorten elimination half-life | 3 to 11 h |  |  |  |
| Mut30: Kif18b neoantigen (K739N) from B16F10 melanoma, PSKPSFQEFVDWENVSPELNSTDQPFL (SEQ ID NO: 2), from Castle 2012 (Mut30 Neoantigen) |  |  |  |  | No statistically significant difference | strong immune reaction preferentially against the mutated peptide | strong mutation-specific immune responses |
